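Results reflect a 48-hour exposure of cells in 96-well plates to compound at five concentrations. GI50 is the concentration that inhibits growth by half.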 Activity calls are given as the source filed them. No stated cut-off is given here; in the data, active = GI50 up to about 1.1 µM and inactive = higher.
Legend:
Assay in all cases: NCI-60 cell line screen, 48 h
T47D = system: T47D
COLO 205 = system: COLO 205
UACC-62 = system: UACC-62
MDA-MB-435 = system: MDA-MB-435
DU-145 = system: DU-145
MDA-MB-231 = system: MDA-MB-231
SK-MEL-28 = system: SK-MEL-28
Hs-578T = system: Hs-578T
HCT-15 = system: HCT-15
NCI-H226 = system: NCI-H226
HCC 2998 = system: HCC 2998
786-0 = system: 786-0
Malme-3M = system: Malme-3M
CCRF-CEM = system: CCRF-CEM
BT-549 = system: BT-549
OVCAR-3 = system: OVCAR-3
OVCAR-5 = system: OVCAR-5
NCI/ADR-RES = system: NCI/ADR-RES
LOX IMVI = system: LOX IMVI
U-251 = system: U-251
UO-31 = system: UO-31
A549 = system: A549
SF-268 = system: SF-268
NCI-H23 = system: NCI-H23
HL-60 = system: HL-60
HOP-62 = system: HOP-62
SK-MEL-5 = system: SK-MEL-5
SNB-75 = system: SNB-75
SF-295 = system: SF-295
UACC-257 = system: UACC-257
A498 = system: A498
M14 = system: M14
SW-620 = system: SW-620
OVCAR-4 = system: OVCAR-4
EKVX = system: EKVX
OVCAR-8 = system: OVCAR-8
NCI-H522 = system: NCI-H522
SK-OV-3 = system: SK-OV-3
ACHN = system: ACHN
MCF7 = system: MCF7
SNB-19 = system: SNB-19
SR = system: SR
MDA-N = system: MDA-N
NCI-H460 = system: NCI-H460
RXF 393 = system: RXF 393
IGROV-1 = system: IGROV-1
HT-29 = system: HT-29
KM12 = system: KM12
HOP-92 = system: HOP-92
MOLT-4 = system: MOLT-4
TK-10 = system: TK-10
SN12C = system: SN12C
PC-3 = system: PC-3
HCT-116 = system: HCT-116
K562 = system: K562
CAKI-1 = system: CAKI-1
SF-539 = system: SF-539
SK-MEL-2 = system: SK-MEL-2
RPMI-8226 = system: RPMI-8226

Measured: GI50

O=S(=O)(c1ccccc1)[C@@H]1[C@H]2C=C[C@](CS)(O2)[C@H]1S(=O)(=O)c1ccccc1
15.2 µM: HCT-15
inactive: T47D 84.3 µM | COLO 205 79.3 µM | UACC-62 > 100 µM | MDA-MB-435 46.2 µM | DU-145 > 100 µM | MDA-MB-231 > 100 µM | SK-MEL-28 > 100 µM | Hs-578T > 100 µM | NCI-H226 > 100 µM | HCC 2998 > 100 µM | 786-0 30 µM | Malme-3M > 100 µM | CCRF-CEM 2.46 µM | BT-549 35.2 µM | OVCAR-3 19.1 µM | OVCAR-5 > 100 µM | NCI/ADR-RES 53.5 µM | LOX IMVI 44.6 µM | U-251 > 100 µM | UO-31 > 100 µM | A549 > 100 µM | SF-268 > 100 µM | NCI-H23 79.6 µM | HL-60 32.8 µM | HOP-62 > 100 µM | SK-MEL-5 > 100 µM | SNB-75 67.5 µM | SF-295 > 100 µM | UACC-257 > 100 µM | A498 > 100 µM | M14 > 100 µM | SW-620 12.4 µM | OVCAR-4 42.1 µM | EKVX 78.9 µM | OVCAR-8 50.1 µM | NCI-H522 14.7 µM | SK-OV-3 > 100 µM | ACHN 76.9 µM | MCF7 62.5 µM | SNB-19 > 100 µM | SR 25.6 µM | MDA-N 82.8 µM | NCI-H460 > 100 µM | RXF 393 43.6 µM | IGROV-1 > 100 µM | HT-29 > 100 µM | KM12 > 100 µM | HOP-92 > 100 µM | MOLT-4 16.5 µM | TK-10 > 100 µM | SN12C 38.2 µM | PC-3 35.6 µM | HCT-116 13.3 µM | K562 14.4 µM | CAKI-1 31.6 µM

CC(=O)Nc1nc(C)c(S(=O)(=O)NC(=O)NC2NC(=O)NC2=O)s1 (centres undefined)
inactive: T47D > 100 µM | COLO 205 > 100 µM | UACC-62 > 100 µM | MDA-MB-435 > 100 µM | DU-145 > 100 µM | MDA-MB-231 > 100 µM | SK-MEL-28 > 100 µM | Hs-578T > 100 µM | HCC 2998 > 100 µM | SF-539 > 100 µM | 786-0 > 100 µM | Malme-3M > 100 µM | CCRF-CEM > 100 µM | BT-549 > 100 µM | OVCAR-3 > 100 µM | OVCAR-5 > 100 µM | NCI/ADR-RES > 100 µM | LOX IMVI > 100 µM | U-251 > 100 µM | UO-31 > 100 µM | A549 > 100 µM | SF-268 > 100 µM | NCI-H23 > 100 µM | HL-60 > 100 µM | SK-MEL-2 > 100 µM | HOP-62 > 100 µM | SK-MEL-5 > 100 µM | SNB-75 > 100 µM | SF-295 > 100 µM | UACC-257 > 100 µM | A498 > 100 µM | M14 > 100 µM | SW-620 > 100 µM | OVCAR-4 > 100 µM | EKVX > 100 µM | OVCAR-8 > 100 µM | NCI-H522 > 100 µM | SK-OV-3 > 100 µM | ACHN > 100 µM | MCF7 > 100 µM | SNB-19 > 100 µM | SR > 100 µM | MDA-N > 100 µM | NCI-H460 > 100 µM | RXF 393 > 100 µM | IGROV-1 > 100 µM | RPMI-8226 > 100 µM | HT-29 > 100 µM | KM12 > 100 µM | HOP-92 > 100 µM | MOLT-4 > 100 µM | TK-10 > 100 µM | SN12C > 100 µM | PC-3 > 100 µM | HCT-116 > 100 µM | K562 > 100 µM | CAKI-1 > 100 µM
> 100 µM: HCT-15

Source: ChEMBL document CHEMBL1201862, “PubChem BioAssay data set” (2004)
